Measurements reported in US20030215888A1, “Androgen receptor overexpressing skeletal myoblasts” (Pfizer Inc., priority 2002, published 2003).
Where two headings read alike, the source gives them in different places.

Experiments:
[1] = system: IGFBP4 transcripts in C2hAR57 cells; details: C2hAR57, 100 nM DHT
Method: (§1) Day zero samples were harvested just prior to the induction of differentiation. […] Total RNA was isolated using Trizol®, and RNA concentration was determined by UV spectroscopy. Samples containing 20 micrograms of total RNA were separated by electrophoresis on formaldehyde-containing agarose gels, transferred to Duralon-UV™ nylon membrane (Stratagene, La Jolla, Calif.) by capillary blotting in 5×SSPE and probed sequentially for IGFBP4, IGF-II and 18S ribosomal RNA. DNA fragments used for probes were generated by reverse transcription polymerase chain reaction using rat skeletal muscle poly A+ RNA as template. […] Probes were denatured by boiling and used at a concentration of 1-2×10^6 dpm/ml hybridization solution (50% formamide, 6×SSC, 1% SDS, 15×Denhardt's solution, 0.1 mg/ml sheared salmon sperm DNA). Following hybridization at 42° C. for at least 24 hours, the membranes were washed to moderate stringency with 0.3×SSC/0.1% SDS at 55° C. […] Between successive probings, the membrane was stripped by incubation at 70° C. for one to three hours in a solution consisting of 5 mM Tris HCl, pH 8, 0.2 mM Na2EDTA, 0.05% sodium pyrophosphate and 0.1×Denhardt's solution. The imaging plate was exposed for 42 hours and 90 minutes to the IGFBP4 and IGF-II hybridizations, respectively. The 18S signal was used to normalize the hybridization signals from each of the other probes.

[2] = system: IGF-II transcripts in C2C12 cells; details: C2C12, 100 nM DHT
Method: as §1

[3] = system: IGFBP4 transcripts in C2C12 cells; details: C2C12, 100 nM DHT
Method: as §1

[4] = system: IGF-II transcripts in C2hAR57 cells; details: C2hAR57, 100 nM DHT
Method: as §1

C2C12 cells [5] = details: C2C12, 100 nM DHT, 24 hours in fusion medium
Method: (§2) All cultures were approximately 80% confluent at the time of mitogen withdrawal. After 24 hour in fusion medium, the medium containing nonadherent cells was transferred to centrifuge tubes. The dishes were then rinsed with phosphate buffered saline and adherent cells were collected by trypsinization. Cell pellets were recovered by centrifugation and lysed in 50 mM Tris HCl, pH 8, 100 mM Na2EDTA, 0.5% sodium dodecylsulfate. […] DNA yields from pools of five dishes were determined by UV spectroscopy at 260 nm. Aliquots corresponding to 10 μg DNA were analyzed by electrophoresis on a 1% agarose gel in TBE buffer and visualized by ethidium bromide fluorescence with UV transillumination.

C2hAR57 cells [6] = details: C2hAR57, 100 nM DHT
Method: as §2

C2C12 cells [7] = details: C2C12, addition of DHT, fusion medium
From the text: (§5) Fusion medium was changed daily. C2hAR57 cells at low density in high mitogen growth medium appeared as small, adherent mononuclear cells.

C2hAR57 cells [8] = details: C2hAR57, 100 nM DHT, 1, 2 or 3 days in fusion medium
From the text: as §5

C2hAR57 cells [9] = details: for Change in protein content: during 24 hours in fusion medium
Method: Procedure B—24 Hours in fusion medium. […] Cell extracts were prepared from the second set of cultures after 24 hours in fusion medium (day one). The change in protein content was determined by subtracting the average protein content for each treatment on day zero from the average protein content on day one.

C2C12 cells [10] = details: for protein content / protein content, percentage difference from vehicle: 3 days in fusion medium
Method: (§3) Procedure A—Three days in fusion medium. C2hAR57 cells were plated in 12-well tissue culture plates (Costar, Corning, N.Y.) at 4×10^4 cells/well in high mitogen growth medium.

C2hAR57 cells [11] = details: for protein content / protein content, percentage difference from vehicle: 3 days in fusion medium
Method: as §3

C2C12 cells [12] = details: C2C12, 100 nM DHT
Method: (§4) Each cell sample was pelleted by low-speed centrifugation and resuspended in 0.5 ml phosphate buffered saline containing 100 micrograms/ml ribonuclease A and 20 microgram/ml propidium iodide for 30 minutes at room temperature.

C2hAR57 cells [13] = details: C2hAR57, 100 nM DHT; remark: listed apart in the source
Method: as §4

With `C[C@]12CCC(=O)C[C@@H]1CC[C@@H]1[C@@H]2CC[C@]2(C)[C@@H](O)CC[C@@H]12` [DHT, dihydrotestosterone] the “magnitude of IGFBP4 suppression” value ([1]; 0 days in fusion medium) was 75%, the “magnitude of IGFBP4 suppression” value ([1]; 1 day in fusion medium) was 86% and the “magnitude of IGFBP4 suppression” value ([1]; 2 days in fusion medium) was 70%. For the same compound, the “increase of IGF-II transcripts” value ([2]; 0 days in fusion medium) was 0.8 ×, the “increase of IGF-II transcripts” value ([2]; 1 day in fusion medium) was 1.5 × and the “increase of IGF-II transcripts” value ([2]; 2 days in fusion medium) was 1.0 ×. For the same compound, the “magnitude of IGFBP4 suppression” value ([3]; 0 days in fusion medium) was 20%, the “magnitude of IGFBP4 suppression” value ([3]; 1 day in fusion medium) was 51% and the “magnitude of IGFBP4 suppression” value ([3]; 2 days in fusion medium) was 44%. The “increase of IGF-II transcripts” value ([4]; 0 days in fusion medium) was 10.2 ×, the “increase of IGF-II transcripts” value ([4]; 1 day in fusion medium) was 3.6 × and the “increase of IGF-II transcripts” value ([4]; 2 days in fusion medium) was 2 ×. The “DNA, adherent cells” value (C2C12 cells [5]) was 504 μg/dish, the “DNA, nonadherent cells (% total)” value (C2C12 cells [5]) was 2.9% and the “effect on the fraction of nonadherent cells” value (C2C12 cells [5]) was “did not appreciably alter”. For the same compound, the “reduction of the incidence of apoptotic cells” value (C2hAR57 cells [6]; 24 hour period following mitogen withdrawal) was “approximately 75%”, the “DNA, adherent cells” value (C2hAR57 cells [6]; 24 hours in fusion medium) was 528 μg/dish and the “DNA, nonadherent cells” value (C2hAR57 cells [6]; 24 hours in fusion medium) was 2.6 μg/dish. For the same compound, the “DNA, nonadherent cells (% total)” value (C2hAR57 cells [6]; 24 hours in fusion medium) was 0.5%, the “rate and extent of myotube formation” value (C2C12 cells [7]) was “neither the rate nor the extent of myotube formation in cultures of C2C12 was visibly affected” and the “rate of myotube formation” value (C2hAR57 cells [8]) was “more rapidly”. For the same compound, the “Change in protein content” value (C2hAR57 cells [9]; C2hAR57, 0.001 nM DHT) was −93 micrograms/well, the “Change in protein content” value (C2hAR57 cells [9]; C2hAR57, 0.1 nM DHT) was −56 micrograms/well and the “Change in protein content” value (C2hAR57 cells [9]; C2hAR57, 10 nM DHT) was “+48 micrograms/well”. The “Change in protein content” value (C2hAR57 cells [9]; C2hAR57, 1000 nM DHT) was “+61 micrograms/well”, the “effect on net loss of protein seen with vehicle” value (C2hAR57 cells [9]; C2hAR57, increasing concentrations of DHT, Procedure B) was “ameliorated and even reversed” and the protein content (C2C12 cells [10]; C2C12, 0.001 nM DHT) was 245 ± 5 micrograms/well. The “protein content, percentage difference from vehicle” value (C2C12 cells [10]; C2C12, 0.001 nM DHT) was “+3%”, the protein content (C2C12 cells [10]; C2C12, 0.01 nM DHT) was 228 ± 3 micrograms/well and the “protein content, percentage difference from vehicle” value (C2C12 cells [10]; C2C12, 0.01 nM DHT) was −4%. The protein content (C2C12 cells [10]; C2C12, 0.1 nM DHT) was 246 ± 4 micrograms/well, the “protein content, percentage difference from vehicle” value (C2C12 cells [10]; C2C12, 0.1 nM DHT) was “+3%” and the protein content (C2C12 cells [10]; C2C12, 1 nM DHT) was 256 ± 9 micrograms/well. The “protein content, percentage difference from vehicle” value (C2C12 cells [10]; C2C12, 1 nM DHT) was “+7%”, the protein content (C2C12 cells [10]; C2C12, 10 nM DHT) was 243 ± 6 micrograms/well and the “protein content, percentage difference from vehicle” value (C2C12 cells [10]; C2C12, 10 nM DHT) was “+2%”. The protein content (C2C12 cells [10]; C2C12, 100 nM DHT) was 243 ± 6 micrograms/well, the “protein content, percentage difference from vehicle” value (C2C12 cells [10]; C2C12, 100 nM DHT) was “+2%” and the protein content (C2C12 cells [10]; C2C12, 1000 nM DHT) was 278 ± 2 micrograms/well. For the same compound, the “protein content, percentage difference from vehicle” value (C2C12 cells [10]; C2C12, 1000 nM DHT) was “+17%”, the “change in total protein content” value (C2C12 cells [10]; C2C12 cultures, DHT 10^-12-10^-6 M, Procedure A) was “no consistent change” and the protein content (C2hAR57 cells [11]; C2hAR57, 0.001 nM DHT) was 123 ± 6 micrograms/well. For the same compound, the “protein content, percentage difference from vehicle” value (C2hAR57 cells [11]; C2hAR57, 0.001 nM DHT) was −1%, the protein content (C2hAR57 cells [11]; C2hAR57, 0.01 nM DHT) was 127 ± 11 micrograms/well and the “protein content, percentage difference from vehicle” value (C2hAR57 cells [11]; C2hAR57, 0.01 nM DHT) was “+3%”. For the same compound, the protein content (C2hAR57 cells [11]; C2hAR57, 0.1 nM DHT) was 152 ± 2 micrograms/well, the “protein content, percentage difference from vehicle” value (C2hAR57 cells [11]; C2hAR57, 0.1 nM DHT) was “+23%” and the protein content (C2hAR57 cells [11]; C2hAR57, 1 nM DHT) was 188 ± 4 micrograms/well. The “protein content, percentage difference from vehicle” value (C2hAR57 cells [11]; C2hAR57, 1 nM DHT) was “+52%”, the protein content (C2hAR57 cells [11]; C2hAR57, 10 nM DHT) was 199 ± 10 micrograms/well and the “protein content, percentage difference from vehicle” value (C2hAR57 cells [11]; C2hAR57, 10 nM DHT) was “+61%”. The protein content (C2hAR57 cells [11]; C2hAR57, 100 nM DHT) was 200 ± 4 micrograms/well, the “protein content, percentage difference from vehicle” value (C2hAR57 cells [11]; C2hAR57, 100 nM DHT) was “+62%” and the protein content (C2hAR57 cells [11]; C2hAR57, 1000 nM DHT) was 212 ± 3 micrograms/well. The “protein content, percentage difference from vehicle” value (C2hAR57 cells [11]; C2hAR57, 1000 nM DHT) was “+71%”, the “dose-related increase in total protein content” value (C2hAR57 cells [11]; differentiating C2hAR57 cultures, DHT 10^-12-10^-6 M, Procedure A) was “up to 71%” and the “effect on fraction of cells at each stage of the cell cycle” value (C2C12 cells [12]) was “unaffected”. For the same compound, the “Percentage of cells in G2-M” value (C2C12 cells [12]; 24 h) was 15.6 ± 1.2%, the “Percentage of cells in GO-G1” value (C2C12 cells [12]; 24 h) was 40.3 ± 0.8% and the “Percentage of cells in S” value (C2C12 cells [12]; 24 h) was 45.3 ± 1.1%. For the same compound, the “Percentage of cells in G2-M” value (C2C12 cells [12]; 48 h) was 15.8 ± 0.7%, the “Percentage of cells in GO-G1” value (C2C12 cells [12]; 48 h) was 38.0 ± 0.6% and the “Percentage of cells in S” value (C2C12 cells [12]; 48 h) was 46.2 ± 0.7%. For the same compound, the “Percentage of cells in G2-M” value (C2hAR57 cells [13]; 24 h) was 14.3 ± 0.4 %, the “Percentage of cells in GO-G1” value (C2hAR57 cells [13]; 24 h) was 54.5 ± 0.7 % and the “Percentage of cells in S” value (C2hAR57 cells [13]; 24 h) was 31.2 ± 0.6 %. For the same compound, the “Percentage of cells in G2-M” value (C2hAR57 cells [13]; 48 h) was 15.1 ± 1.1 %, the “Percentage of cells in GO-G1” value (C2hAR57 cells [13]; 48 h) was 51.2 ± 2.8 % and the “Percentage of cells in S” value (C2hAR57 cells [13]; 48 h) was 33.7 ± 3.2 %.
